From PubChem BioAssay (NCI)
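All cell lines were grown in 96-well plates and treated with compound for 48 hours. At the TGI there is no net growth.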

Tests used:
Test in all cases: inhibition of tumour cell growth, NCI panel, 48 h
T-47D breast = tested on: T-47D breast
NCI/ADR-RES ovarian = tested on: NCI/ADR-RES ovarian
ACHN renal = tested on: ACHN renal
U251 CNS = tested on: U251 CNS
NCI-H23 lung = tested on: NCI-H23 lung
DU-145 prostate = tested on: DU-145 prostate
SN12C renal = tested on: SN12C renal
OVCAR-8 ovarian = tested on: OVCAR-8 ovarian
A549 NSCLC = tested on: A549 NSCLC
EKVX NSCLC = tested on: EKVX NSCLC
SNB-19 CNS = tested on: SNB-19 CNS
A498 renal = tested on: A498 renal
UO-31 renal = tested on: UO-31 renal
SNB-75 CNS = tested on: SNB-75 CNS
SK-MEL-2 melanoma = tested on: SK-MEL-2 melanoma
OVCAR-3 ovarian = tested on: OVCAR-3 ovarian
MDA-N = tested on: MDA-N
OVCAR-4 ovarian = tested on: OVCAR-4 ovarian
SF-539 CNS = tested on: SF-539 CNS
SK-MEL-28 melanoma = tested on: SK-MEL-28 melanoma
UACC-62 melanoma = tested on: UACC-62 melanoma
MDA-MB-435 = tested on: MDA-MB-435
HCC-2998 colon = tested on: HCC-2998 colon
CCRF-CEM leukemia = tested on: CCRF-CEM leukemia
NCI-H522 lung = tested on: NCI-H522 lung
IGROV1 ovarian = tested on: IGROV1 ovarian
RPMI-8226 leukemia = tested on: RPMI-8226 leukemia
SF-295 CNS = tested on: SF-295 CNS
OVCAR-5 ovarian = tested on: OVCAR-5 ovarian
RXF 393 renal = tested on: RXF 393 renal
M14 melanoma = tested on: M14 melanoma
KM12 colon = tested on: KM12 colon
NCI-H226 lung = tested on: NCI-H226 lung
SF-268 CNS = tested on: SF-268 CNS
MDA-MB-231 breast = tested on: MDA-MB-231 breast
BT-549 breast = tested on: BT-549 breast
HCT-116 colon = tested on: HCT-116 colon
HCT-15 colon = tested on: HCT-15 colon
MALME-3M melanoma = tested on: MALME-3M melanoma
NCI-H460 lung = tested on: NCI-H460 lung
HOP-92 NSCLC = tested on: HOP-92 NSCLC
K-562 leukemia = tested on: K-562 leukemia
TK-10 renal = tested on: TK-10 renal
LOX IMVI melanoma = tested on: LOX IMVI melanoma
HT29 colon = tested on: HT29 colon
MOLT-4 leukemia = tested on: MOLT-4 leukemia
UACC-257 melanoma = tested on: UACC-257 melanoma

SMILES: COc1cc2c(cc1OCCCCCN1C(=O)c3cccc4cccc(c34)C1=O)N=C[C@@H]1CCCN1C2=O
- TGI (T-47D breast): 8250 nM
- TGI (NCI/ADR-RES ovarian): 890 nM
- TGI (ACHN renal): 827 nM
- TGI (U251 CNS): > 100000 nM
- TGI (NCI-H23 lung): 458 nM
- TGI (DU-145 prostate): 6900 nM
- TGI (SN12C renal): 9620 nM
- TGI (OVCAR-8 ovarian): 1470 nM
- TGI (A549 NSCLC): 3300 nM
- TGI (EKVX NSCLC): 1850 nM
- TGI (SNB-19 CNS): 4150 nM
- TGI (A498 renal): 1300 nM
- TGI (UO-31 renal): 454 nM
- TGI (SNB-75 CNS): 1240 nM
- TGI (SK-MEL-2 melanoma): 548 nM
- TGI (OVCAR-3 ovarian): 524 nM
- TGI (MDA-N): 331 nM
- TGI (OVCAR-4 ovarian): > 100000 nM
- TGI (SF-539 CNS): 2550 nM
- TGI (SK-MEL-28 melanoma): 966 nM
- TGI (UACC-62 melanoma): 297 nM
- TGI (MDA-MB-435): 306 nM
- TGI (HCC-2998 colon): > 100000 nM
- TGI (CCRF-CEM leukemia): 67.7 nM
- TGI (NCI-H522 lung): 167 nM
- TGI (IGROV1 ovarian): 535 nM
- TGI (RPMI-8226 leukemia): > 26200 nM
- TGI (SF-295 CNS): 4660 nM
- TGI (OVCAR-5 ovarian): 15500 nM
- TGI (RXF 393 renal): 49.3 nM
- TGI (M14 melanoma): 349 nM
- TGI (KM12 colon): 391 nM
- TGI (NCI-H226 lung): 574 nM
- TGI (SF-268 CNS): > 100000 nM
- TGI (MDA-MB-231 breast): > 100000 nM
- TGI (BT-549 breast): 855 nM
- TGI (HCT-116 colon): 3130 nM
- TGI (HCT-15 colon): 4060 nM
- TGI (MALME-3M melanoma): 364 nM
- TGI (NCI-H460 lung): > 100000 nM
- TGI (HOP-92 NSCLC): 747 nM
- TGI (K-562 leukemia): > 100000 nM
- TGI (TK-10 renal): 2780 nM
- TGI (LOX IMVI melanoma): 785 nM
- TGI (HT29 colon): 1500 nM
- TGI (MOLT-4 leukemia): > 100000 nM
- TGI (UACC-257 melanoma): 1840 nM
